Measurements: patent US7235560B2, “Pyrimidine derivative as selective COX-2 inhibitors” (priority 2002, dated 2007)

Columns and labels:
microsomal h-COX2 = biological target: T1, microsomal h-COX2 (Homo sapiens, UniProt P35354); assay: Microsomal assay, inhibition of h-COX2 (PGE2 by EIA); assay type: biochemical; conditions: microsomal preparation from baculovirus infected SF9 cells; 1 hour preincubation; 0.1 μM arachidonic acid; read-out: COX-2: IC50
T1 construct: made in house; host or cells: baculovirus infected SF9 cells (microsomal preparation)
T1 sequence (P35354 18-604): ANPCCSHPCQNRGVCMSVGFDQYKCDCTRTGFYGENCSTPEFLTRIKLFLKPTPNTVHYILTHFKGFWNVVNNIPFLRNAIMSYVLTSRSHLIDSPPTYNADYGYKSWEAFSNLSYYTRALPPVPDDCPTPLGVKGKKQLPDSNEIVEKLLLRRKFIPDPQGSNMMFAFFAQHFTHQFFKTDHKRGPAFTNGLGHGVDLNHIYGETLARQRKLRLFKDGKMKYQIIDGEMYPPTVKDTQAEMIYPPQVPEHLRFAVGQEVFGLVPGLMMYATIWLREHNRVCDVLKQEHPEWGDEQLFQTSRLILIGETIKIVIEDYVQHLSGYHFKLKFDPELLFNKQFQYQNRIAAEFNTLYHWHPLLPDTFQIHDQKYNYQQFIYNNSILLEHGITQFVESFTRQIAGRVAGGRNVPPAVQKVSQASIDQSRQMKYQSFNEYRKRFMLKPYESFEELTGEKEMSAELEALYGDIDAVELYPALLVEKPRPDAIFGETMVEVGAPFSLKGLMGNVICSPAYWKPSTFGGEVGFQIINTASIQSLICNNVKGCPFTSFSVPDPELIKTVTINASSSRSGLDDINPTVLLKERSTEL
Description: Inhibitory activity against microsomal h-COX2 was assessed against a microsomal preparation from baculovirus infected SF9 cells. An aliquot of microsomal preparation was thawed slowly on ice and a 1/40,000 dilution prepared from it into the assay buffer (sterile water, degassed with argon containing 100 mM HEPES (pH 7.4), 10 mM EDTA (pH7.4), 1 mM phenol, 1 mM reduced glutathione, 20 mg/ml gelatin and 0.001 mM Hematin). Once diluted the enzyme solution was then sonicated for 5 seconds (Branson sonicator, setting 4, 1 cm tip) to ensure a homogeneous suspension. 155 μl enzyme solution was then added to each well of a 96-well microtitre plate containing either 5 μl test compound (40× required test concentration) or 5 μl DMSO for controls. Plates were then mixed and incubated at room temperature for 1 hour. Following the incubation period, 40 μl of 0.5 μM arachidonic acid was added to each well to give a final concentration of 0.1 μM. Plates were then mixed and incubated for exactly 10 minutes (room temperature) prior to addition of 25 μl 1M HCl (hydrochloric acid) to each well to stop the reaction. 25 μl of 1M NaOH (sodium hydroxide) was then added to each well to neutralise the solution prior to determination of PGE2 levels by enzyme immunoassay (EIA).
The following IC50 values for inhibition of COX-2 and COX-1 were obtained from the microsomal assay for compounds of the invention: […]

COX-1 = COX-1 (Homo sapiens, UniProt P23219); assay: Microsomal assay, inhibition of COX-1; assay type: biochemical
COX-1, sequence (P23219 24-599): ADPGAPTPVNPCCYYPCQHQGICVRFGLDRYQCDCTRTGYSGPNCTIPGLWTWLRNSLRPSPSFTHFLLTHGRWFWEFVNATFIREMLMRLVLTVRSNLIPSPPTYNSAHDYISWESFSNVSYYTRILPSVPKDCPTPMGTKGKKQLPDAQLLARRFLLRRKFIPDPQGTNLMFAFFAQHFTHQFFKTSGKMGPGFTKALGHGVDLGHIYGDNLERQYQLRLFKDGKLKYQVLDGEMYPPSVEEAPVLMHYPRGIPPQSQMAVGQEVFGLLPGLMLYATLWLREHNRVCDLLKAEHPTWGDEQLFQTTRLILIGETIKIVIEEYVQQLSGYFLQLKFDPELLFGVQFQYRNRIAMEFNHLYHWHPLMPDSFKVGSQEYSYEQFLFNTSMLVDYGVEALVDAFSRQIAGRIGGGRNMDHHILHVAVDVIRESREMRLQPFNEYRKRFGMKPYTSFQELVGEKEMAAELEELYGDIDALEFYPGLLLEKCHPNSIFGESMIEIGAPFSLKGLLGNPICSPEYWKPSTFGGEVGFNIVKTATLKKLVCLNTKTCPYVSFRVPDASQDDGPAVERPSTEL

Row | Structure (SMILES) | IC50 (microsomal h-COX2) | IC50 (COX-1)
1 | Cc1cc(-c2ccc(S(C)(=O)=O)cn2)nc(NCc2ccccc2)n1 [Example 1] | 0.051 µM | 23.1 µM
2 | CS(=O)(=O)c1ccc(-c2cc(C(F)(F)F)nc(NC3CCCCC3)n2)nc1 [Example 5, Cyclohexyl-[4-(5-methanesulfonyl-pyridin-2-yl)-6-trifluoromethyl-pyrimidin-2-yl]-amine] | 0.019 µM | > 100 µM
3 | Cc1cccc(CN(C)c2nc(-c3ccc(S(C)(=O)=O)cn3)cc(C(F)(F)F)n2)n1 [Example 3, [4-(5-Methanesulfonyl-pyridin-2-yl)-6-trifluoromethyl-pyrimidin-2-yl]-methyl-(6-methyl-pyridin-2-ylmethyl)-amine] | 0.005 µM | 67.1 µM
